From patent publication US8729061B2, “Pyrrolidine derivatives” (Hoffmann-La Roche Inc., priority 2011, dated 2014)

Key:
Assay type in all cases: biochemical
[1] = target: human Cathepsin S (Homo sapiens (Human), UniProt P25774); experiment: Cathepsin enzyme inhibition assay (fluorogenic peptide substrate), Cat S; conditions: enzyme 1 nM, substrate Z-Val-Val-Arg-AMC 20 μM, pH 6.5
Protocol: (§1) Enzyme activity is measured by observing the increase in fluorescence intensity caused by cleavage of a peptide substrate containing a fluorophore whose emission is quenched in the intact peptide.
(§2) Assay buffer: 100 mM potassium phosphate pH 6.5, EDTA-Na 5 mM, Triton X-100 0.001%, DTT 5 mM.
(§3) Enzymes (all at 1 nM): human and mouse Cathepsin S, Cat K, Cat B, Cat L. Substrate (20 μM): Z-Val-Val-Arg-AMC, except for Cat K which uses Z-Leu-Arg-AMC (both from Bachem).
(§4) Excitation 360 nm, Emission 465 nm.
(§5) Enzyme is added to the substance dilutions in 96-well microtitre plates and the reaction is started with substrate. […] IC50 are calculated by standard methods. Inhibition of human Cat S, mouse Cat S, human Cat K, mouse Cat K, human Cat B, mouse Cat B, human Cat L and mouse Cat L have been measured separately.

[2] = target: human Cat K (Homo sapiens (Human), UniProt P43235); experiment: Cathepsin enzyme inhibition assay (fluorogenic peptide substrate), Cat K; conditions: enzyme 1 nM, substrate Z-Leu-Arg-AMC 20 μM, pH 6.5
Protocol: as §1, §2, §3, §4, §5

[3] = target: human Cat B (Homo sapiens (Human), UniProt P07858); experiment: Cathepsin enzyme inhibition assay (fluorogenic peptide substrate), Cat B; conditions: enzyme 1 nM, substrate Z-Val-Val-Arg-AMC 20 μM, pH 6.5
Protocol: as §1, §2, §3, §4, §5

[4] = target: human Cat L (Homo sapiens (Human), UniProt P07711); experiment: Cathepsin enzyme inhibition assay (fluorogenic peptide substrate), Cat L; conditions: enzyme 1 nM, substrate Z-Val-Val-Arg-AMC 20 μM, pH 6.5
Protocol: as §1, §2, §3, §4, §5

human Cat L, sequence (P07711 114-333): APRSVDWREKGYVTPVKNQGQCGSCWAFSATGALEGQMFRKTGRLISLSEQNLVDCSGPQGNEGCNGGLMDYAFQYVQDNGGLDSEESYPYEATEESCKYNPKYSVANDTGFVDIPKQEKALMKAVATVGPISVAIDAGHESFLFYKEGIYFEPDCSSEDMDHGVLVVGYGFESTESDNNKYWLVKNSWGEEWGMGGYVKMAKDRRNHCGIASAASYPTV
human Cat K, sequence (P43235 115-329): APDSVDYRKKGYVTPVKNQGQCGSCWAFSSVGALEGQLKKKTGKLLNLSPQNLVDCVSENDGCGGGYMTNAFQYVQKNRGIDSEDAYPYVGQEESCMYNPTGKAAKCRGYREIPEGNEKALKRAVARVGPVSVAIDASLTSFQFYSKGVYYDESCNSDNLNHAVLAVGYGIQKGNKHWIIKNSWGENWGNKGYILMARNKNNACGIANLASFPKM
human Cathepsin S, sequence (P25774 115-331): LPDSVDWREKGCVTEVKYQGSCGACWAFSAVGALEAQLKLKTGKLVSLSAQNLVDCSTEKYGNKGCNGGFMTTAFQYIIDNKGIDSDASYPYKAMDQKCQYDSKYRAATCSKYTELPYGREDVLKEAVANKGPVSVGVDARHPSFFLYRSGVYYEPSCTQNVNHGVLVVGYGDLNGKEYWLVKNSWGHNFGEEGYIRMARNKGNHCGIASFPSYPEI

| SMILES | IC50 [1] [nM] | IC50 [2] [nM] | IC50 [3] [nM] | IC50 [4] [nM] |
| --- | --- | --- | --- | --- |
| CC(C)(NC(=O)[C@@H]1C[C@@H](S(=O)(=O)c2ccccc2Cl)CN1C(=O)C1(c2ccc(Cl)cc2)CC1)C(=O)C(=O)NC1CC1 [Example 26, (2S,4R)-1-(1-(4-chlorophenyl)cyclopropanecarbonyl)-4-(2-chlorophenylsulfonyl)-N-(4-(cyclopropylamino)-2-methyl-3,4-dioxobutan-2-yl)pyrrolidine-2-carboxamide] | 10.5 | 25000 | 25000 | 3100 |
| CC[C@H](NC(=O)[C@@H]1C[C@@H](S(=O)(=O)c2ccccc2Cl)CN1C(=O)C1(c2ccc(Cl)cc2)CC1)C(=O)c1nc2ccccc2o1 [Example 12, (2S,4R)—N—((S)-1-(benzo[d]oxazol-2-yl)-1-oxobutan-2-yl)-1-(1-(4-chlorophenyl)cyclopropanecarbonyl)-4-(2-chlorophenylsulfonyl)pyrrolidine-2-carboxamide] | 0.737 | 360 | 183 | 21.2 |
| CC[C@H](NC(=O)[C@@H]1C[C@@H](S(=O)(=O)c2ccccc2Cl)CN1C(=O)C1(c2ccc(Cl)cc2)CC1)C(=O)C(=O)NCCc1ccc2ccccc2c1 [Example 51, (2S,4R)-1-(1-(4-chlorophenyl)cyclopropanecarbonyl)-4-(2-chlorophenylsulfonyl)-N—((S)-1-(2-(naphthalen-2-yl)ethylamino)-1,2-dioxopentan-3-yl)pyrrolidine-2-carboxamide] | 3.08 | 159 | 172 | 13 |
| CC[C@H](NC(=O)[C@@H]1C[C@@H](S(=O)(=O)c2ccccc2C(F)(F)F)CN1c1ccccc1[N+](=O)[O-])C(=O)C(=O)NC1CC1 [Example 3, (2S,4R)—N—((S)-1-(cyclopropylamino)-1,2-dioxopentan-3-yl)-1-(2-nitrophenyl)-4-(2-(trifluoromethyl)phenylsulfonyl)pyrrolidine-2-carboxamide] | 1 | 7430 | 3180 | 1550 |
| CCC[C@H](NC(=O)[C@@H]1C[C@@H](S(=O)(=O)c2ccccc2Cl)CN1C(=O)C1(c2ncc(Cl)cc2F)CC1)C(=O)C(=O)NC1CC1 [Example 24, (2S,4R)-1-(1-(5-chloro-3-fluoropyridin-2-yl)cyclopropanecarbonyl)-4-(2-chlorophenylsulfonyl)-N—((S)-1-(cyclopropylamino)-1,2-dioxohexan-3-yl)pyrrolidine-2-carboxamide] | 0.55 | 71.7 | 190 | 10.8 |
| CC[C@H](NC(=O)[C@@H]1C[C@@H](S(=O)(=O)c2ccc(C)cc2C)CN1C(=O)OC(C)(C)C)C(=O)C(=O)NC1CC1 [Example 1, (2S,4R)-tert-butyl 2-((S)-1-(cyclopropylamino)-1,2-dioxopentan-3-ylcarbamoyl)-4-(2,4-dimethylphenylsulfonyl)pyrrolidine-1-carboxylate] | 0.829 | 7900 | 11100 | 1910 |
| CC[C@H](NC(=O)[C@@H]1C[C@@H](S(=O)(=O)c2ccccc2Cl)CN1C(=O)C1(c2ccc(Cl)cc2)CC1)C(=O)C(=O)NCCc1cccc2ccccc12 [Example 50, (2S,4R)-1-(1-(4-chlorophenyl)cyclopropanecarbonyl)-4-(2-chlorophenylsulfonyl)-N—((S)-1-(2-(naphthalen-1-yl)ethylamino)-1,2-dioxopentan-3-yl)pyrrolidine-2-carboxamide] | 2.76 | 119 | 68.8 | 8.6 |

Second part, the molecule after the results:

| IC50 [1] [nM] | IC50 [2] [nM] | IC50 [3] [nM] | IC50 [4] [nM] | SMILES |
| --- | --- | --- | --- | --- |
| 1.06 | 406 | 366 | 29.9 | CCC[C@H](NC(=O)[C@@H]1C[C@@H](S(=O)(=O)c2ccccc2Cl)CN1C(=O)C1(c2ccc(Cl)cc2)CC1)C(=O)C(=O)NCC(F)(F)F [Example 40, (2S,4R)-1-(1-(4-chlorophenyl)cyclopropanecarbonyl)-4-(2-chlorophenylsulfonyl)-N—((S)-1,2-dioxo-1-(2,2,2-trifluoroethylamino)hexan-3-yl)pyrrolidine-2-carboxamide] |
| 2.87 | 144 | 354 | 6.1 | CCCCNC(=O)C(=O)[C@H](CC)NC(=O)[C@@H]1C[C@@H](S(=O)(=O)c2ccccc2Cl)CN1C(=O)C1(c2ncc(Cl)cc2F)CC1 [Example 60, (2S,4R)—N—((S)-1-(butylamino)-1,2-dioxopentan-3-yl)-1-(1-(5-chloro-3-fluoropyridin-2-yl)cyclopropanecarbonyl)-4-(2-chlorophenylsulfonyl)pyrrolidine-2-carboxamide] |
| 0.668 | 406 | 165 | 28.7 | CC[C@H](NC(=O)[C@@H]1C[C@@H](S(=O)(=O)c2ccccc2C(F)(F)F)CN1C(=O)C1(c2ccc(Cl)cc2)CC1)C(=O)C(=O)NC1CC1 [Example 21, (2S,4R)-1-(1-(4-chlorophenyl)cyclopropanecarbonyl)-N—((S)-1-(cyclopropylamino)-1,2-dioxopentan-3-yl)-4-(2-(trifluoromethyl)phenylsulfonyl)pyrrolidine-2-carboxamide] |
| 1.27 | 69 | 178 | 18.4 | CC(C)C[C@H](NC(=O)[C@@H]1C[C@@H](S(=O)(=O)c2ccccc2Cl)CN1C(=O)C1(c2ccc(Cl)cc2)CC1)C(=O)C(=O)NC1CC1 [Example 29, (2S,4R)-1-(1-(4-chlorophenyl)cyclopropanecarbonyl)-4-(2-chlorophenylsulfonyl)-N—((S)-1-(cyclopropylamino)-5-methyl-1,2-dioxohexan-3-yl)pyrrolidine-2-carboxamide] |
| 0.776 | 155 | 350 | 16.5 | CCCC(C)NC(=O)C(=O)[C@H](CC)NC(=O)[C@@H]1C[C@@H](S(=O)(=O)c2ccccc2Cl)CN1C(=O)C1(c2ccc(Cl)cc2)CC1 (stereo partly drawn) [Example 36, (2S,4R)-1-(1-(4-chlorophenyl)cyclopropanecarbonyl)-4-(2-chlorophenylsulfonyl)-N-((3S)-1,2-dioxo-1-(pentan-2-ylamino)pentan-3-yl)pyrrolidine-2-carboxamide] |
| 1.21 | 21.5 | 31 | 9.8 | CCC[C@H](NC(=O)[C@@H]1C[C@@H](S(=O)(=O)c2ccccc2Cl)CN1C(=O)C1(c2ccc(Cl)cc2)CC1)C(=O)C(=O)NCc1ccccc1 [Example 35, (2S,4R)—N—((S)-1-(benzylamino)-1,2-dioxohexan-3-yl)-1-(1-(4-chlorophenyl)cyclopropanecarbonyl)-4-(2-chlorophenylsulfonyl)pyrrolidine-2-carboxamide] |
| 0.6 | 21 | 70.1 | 8.4 | CCC[C@H](NC(=O)[C@@H]1C[C@@H](S(=O)(=O)c2ccccc2Cl)CN1C(=O)C1(c2ccc(I)cc2)CC1)C(=O)C(=O)NC1CC1 [Example 18, (2S,4R)-4-(2-chlorophenylsulfonyl)-N—((S)-1-(cyclopropylamino)-1,2-dioxohexan-3-yl)-1-(1-(4-iodophenyl)cyclopropanecarbonyl)pyrrolidine-2-carboxamide] |
| 0.876 | 56.5 | 61.6 | 2.6 | CC[C@H](NC(=O)[C@@H]1C[C@@H](S(=O)(=O)c2ccccc2Cl)CN1C(=O)C1(c2ccc(Cl)cc2)CC1)C(=O)C(=O)NCC(C)C [Example 55, (2S,4R)-1-(1-(4-chlorophenyl)cyclopropanecarbonyl)-4-(2-chlorophenylsulfonyl)-N—((S)-1-(isobutylamino)-1,2-dioxopentan-3-yl)pyrrolidine-2-carboxamide] |
| 1.11 | 52.9 | 77 | 13.6 | CC[C@H](NC(=O)[C@@H]1C[C@@H](S(=O)(=O)c2ccccc2Cl)CN1C(=O)C1(c2ccc(Cl)cc2)CC1)C(=O)C(=O)NCc1ccccc1 [Example 33, (2S,4R)—N—((S)-1-(benzylamino)-1,2-dioxopentan-3-yl)-1-(1-(4-chlorophenyl)cyclopropanecarbonyl)-4-(2-chlorophenylsulfonyl)pyrrolidine-2-carboxamide] |
| 22.3 | 998 | 1540 | 283 | CCC[C@H](NC(=O)[C@@H]1C[C@@H](S(=O)(=O)c2ccccc2Cl)CN1C(=O)C1(c2ccc(Cl)cc2)CC1)C(=O)C(=O)N(C)C1CC1 [Example 47, (2S,4R)-1-(1-(4-chlorophenyl)cyclopropanecarbonyl)-4-(2-chlorophenylsulfonyl)-N—((S)-1-(cyclopropyl(methyl)amino)-1,2-dioxohexan-3-yl)pyrrolidine-2-carboxamide] |
| 1.96 | 317 | 386 | 9.4 | CC[C@H](NC(=O)[C@@H]1C[C@@H](S(=O)(=O)c2ccccc2Cl)CN1C(=O)C1(c2ccc(Cl)cc2)CC1)C(=O)C(=O)NCc1cccc2ccccc12 [Example 52, (2S,4R)-1-(1-(4-chlorophenyl)cyclopropanecarbonyl)-4-(2-chlorophenylsulfonyl)-N—((S)-1-(naphthalen-1-ylmethylamino)-1,2-dioxopentan-3-yl)pyrrolidine-2-carboxamide] |
